We go through four compounds from BindingDB's records for doi:10.1021/jm00091a008 (Alter, 1992).

By IC50 is commonly meant the concentration at which inhibition is half-maximal.

Voltage-dependent L-type calcium channel subunit alpha-1C, sequence (P15381 whole entry): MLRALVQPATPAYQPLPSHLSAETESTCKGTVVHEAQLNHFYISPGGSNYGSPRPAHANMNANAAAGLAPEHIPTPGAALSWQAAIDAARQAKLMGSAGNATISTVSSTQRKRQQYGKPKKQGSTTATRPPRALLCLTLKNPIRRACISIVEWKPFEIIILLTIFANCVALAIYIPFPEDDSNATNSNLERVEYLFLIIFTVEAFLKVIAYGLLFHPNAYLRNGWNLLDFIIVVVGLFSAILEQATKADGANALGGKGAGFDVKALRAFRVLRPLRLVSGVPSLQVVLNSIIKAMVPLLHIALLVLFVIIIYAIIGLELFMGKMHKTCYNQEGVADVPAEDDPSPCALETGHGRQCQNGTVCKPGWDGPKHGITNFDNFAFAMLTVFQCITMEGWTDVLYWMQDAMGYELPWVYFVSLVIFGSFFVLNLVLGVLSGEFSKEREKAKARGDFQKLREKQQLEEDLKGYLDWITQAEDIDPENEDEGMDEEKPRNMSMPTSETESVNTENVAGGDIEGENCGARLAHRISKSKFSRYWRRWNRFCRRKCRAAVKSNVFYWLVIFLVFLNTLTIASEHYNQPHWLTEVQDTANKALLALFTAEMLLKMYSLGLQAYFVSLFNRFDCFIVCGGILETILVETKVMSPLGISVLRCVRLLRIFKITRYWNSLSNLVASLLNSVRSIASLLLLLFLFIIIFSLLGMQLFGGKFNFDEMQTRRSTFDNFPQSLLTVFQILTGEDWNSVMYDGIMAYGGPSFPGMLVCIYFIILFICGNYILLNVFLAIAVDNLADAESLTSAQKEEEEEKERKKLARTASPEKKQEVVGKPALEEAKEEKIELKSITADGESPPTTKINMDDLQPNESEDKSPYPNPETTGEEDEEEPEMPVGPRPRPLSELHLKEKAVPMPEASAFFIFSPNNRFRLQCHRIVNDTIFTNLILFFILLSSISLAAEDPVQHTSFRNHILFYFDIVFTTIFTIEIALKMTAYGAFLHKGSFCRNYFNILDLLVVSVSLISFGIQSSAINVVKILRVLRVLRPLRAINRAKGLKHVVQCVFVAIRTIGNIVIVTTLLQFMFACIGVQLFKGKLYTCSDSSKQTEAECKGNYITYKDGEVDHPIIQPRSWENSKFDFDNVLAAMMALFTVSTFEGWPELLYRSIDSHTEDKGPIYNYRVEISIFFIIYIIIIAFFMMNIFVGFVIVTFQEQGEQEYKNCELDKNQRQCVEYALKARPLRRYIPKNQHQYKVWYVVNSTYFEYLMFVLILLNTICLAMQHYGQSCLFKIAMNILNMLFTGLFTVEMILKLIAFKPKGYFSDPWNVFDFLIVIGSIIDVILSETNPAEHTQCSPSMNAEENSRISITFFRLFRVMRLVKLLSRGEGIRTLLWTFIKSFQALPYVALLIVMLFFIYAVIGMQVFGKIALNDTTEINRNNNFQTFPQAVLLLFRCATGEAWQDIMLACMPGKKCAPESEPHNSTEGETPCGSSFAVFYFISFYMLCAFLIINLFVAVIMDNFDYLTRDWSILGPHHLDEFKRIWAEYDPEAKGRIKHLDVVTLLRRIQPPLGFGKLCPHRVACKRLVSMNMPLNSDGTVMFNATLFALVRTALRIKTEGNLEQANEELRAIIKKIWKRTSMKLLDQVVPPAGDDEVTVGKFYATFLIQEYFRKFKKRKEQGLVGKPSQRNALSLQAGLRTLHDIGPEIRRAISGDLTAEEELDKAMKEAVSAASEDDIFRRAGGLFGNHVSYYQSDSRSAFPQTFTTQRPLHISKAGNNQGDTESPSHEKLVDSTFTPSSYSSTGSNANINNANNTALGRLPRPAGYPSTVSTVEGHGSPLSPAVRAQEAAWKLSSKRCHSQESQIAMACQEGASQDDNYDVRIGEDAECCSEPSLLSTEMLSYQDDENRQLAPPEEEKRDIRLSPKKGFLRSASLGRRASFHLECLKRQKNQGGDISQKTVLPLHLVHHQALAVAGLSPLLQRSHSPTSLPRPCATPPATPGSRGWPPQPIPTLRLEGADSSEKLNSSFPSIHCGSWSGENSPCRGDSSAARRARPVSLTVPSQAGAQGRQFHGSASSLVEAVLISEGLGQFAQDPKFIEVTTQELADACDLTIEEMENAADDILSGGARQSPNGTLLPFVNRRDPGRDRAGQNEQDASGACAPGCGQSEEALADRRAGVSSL

The target in the experiment is Voltage-dependent L-type calcium channel subunit alpha-1C (Oryctolagus cuniculus, UniProt P15381). Kind of experiment: ChEBML_164619. From the text:
Blockade of calcium-evoked contractions in depolarized aortic strips
`CC1=NC(C)=C(C(=O)OCC2CCCCO2)C(c2ccccc2[N+](=O)[O-])C1=C(O)OCN1C(=O)c2ccccc2S1(=O)=O` (centres undefined): the IC50 was 25 nM.

For `COC(=O)C1C(C)=NC(C)=C(C(=O)OCN2C(=O)c3ccccc3S2(=O)=O)C1c1cccc(Cl)c1Cl` (centres undefined), the IC50 came to 5.1 nM.

For the compound `COCCOC(=O)C1C(C)=NC(C)=C(C(=O)OCN2C(=O)c3ccccc3S2(=O)=O)C1c1cccc(Cl)c1Cl` (centres undefined), the IC50 is 2.9 nM.

For `CC1=NC(C)=C(C(=O)OCC2CCCO2)C(c2cccc([N+](=O)[O-])c2)C1=C(O)OCN1C(=O)c2ccccc2S1(=O)=O` (centres undefined), the IC50 is 25 nM.
